Results as given in the CheMixHub viscosity set.

Experiment: xn = mol fraction of the nth substance listed

CC(=O)OCc1ccccc1 + CCCCCO
viscosity [mPa·s], 101.33 kPa
Details | x1 = 0.1074 | x1 = 0.2083 | x1 = 0.2988 | x1 = 0.4051 | x1 = 0.5012 | x1 = 0.6057 | x1 = 0.7115 | x1 = 0.8097 | x1 = 0.9004
293.15 K | 3.865 | 3.649 | 3.465 | 3.261 | 3.087 | 2.909 | 2.738 | 2.589 | 2.459
303.15 K | 2.789 | 2.661 | 2.551 | 2.427 | 2.321 | 2.21 | 2.103 | 2.009 | 1.926
313.15 K | 2.194 | 2.1 | 2.018 | 1.927 | 1.848 | 1.766 | 1.686 | 1.616 | 1.553
323.15 K | 1.296 | 1.288 | 1.281 | 1.274 | 1.266 | 1.259 | 1.251 | 1.244 | 1.237

CCCCCCCCCC(=O)OC + CCCCCO
viscosity [mPa·s], 100 kPa
Details | x1 = 0.1 | x1 = 0.2 | x1 = 0.3 | x1 = 0.4 | x1 = 0.5 | x1 = 0.6 | x1 = 0.7 | x1 = 0.8001 | x1 = 0.9001
298.15 K | 2.764 | 2.385 | 2.169 | 2.028 | 1.946 | 1.892 | 1.866 | 1.859 | 1.875
303.15 K | 2.451 | 2.119 | 1.938 | 1.825 | 1.754 | 1.706 | 1.689 | 1.686 | 1.712
308.15 K | 2.158 | 1.892 | 1.741 | 1.646 | 1.588 | 1.549 | 1.535 | 1.536 | 1.555
313.15 K | 1.918 | 1.697 | 1.571 | 1.49 | 1.444 | 1.413 | 1.402 | 1.407 | 1.426
318.15 K | 1.713 | 1.529 | 1.423 | 1.358 | 1.32 | 1.293 | 1.288 | 1.292 | 1.312
323.15 K | 1.535 | 1.387 | 1.294 | 1.239 | 1.211 | 1.189 | 1.186 | 1.194 | 1.212
